From US8741922B2, “Solid forms of N-(4-(7-azabicyclo[2.2,1]heptan-7-yl)-2-trifluoromethyl)phenyl)-4-oxo-5-(trifluoromethyl)-1,4-dihydroquinoline-3-carboxamide” (Vertex Pharmaceuticals Incorporated, priority 2009, dated 2014)

Biological target: T1, ΔF508-CFTR (Homo sapiens, UniProt P13569, DEL508-508)
T1 construct: expressed in transfected cells
Experiment: Membrane potential optical assay for ΔF508-CFTR potentiation (FLIPR III, voltage sensing dyes)
Type: cell-based
Conditions: assay not explicitly tied to the value, ΔF508-CFTR NIH 3T3 cells
Excerpt: Assays for Detecting and Measuring ΔF508-CFTR Potentiation Properties of Compounds
Membrane Potential Optical Methods for Assaying ΔF508-CFTR Modulation Properties of Compounds
The assay utilizes fluorescent voltage sensing dyes to measure changes in membrane potential using a fluorescent plate reader (e.g., FLIPR III, Molecular Devices, Inc.) as a readout for increase in functional ΔF508-CFTR in NIH 3T3 cells. The driving force for the response is the creation of a chloride ion gradient in conjunction with channel activation by a single liquid addition step after the cells have previously been treated with compounds and subsequently loaded with a voltage sensing dye.
To identify potentiators of ΔF508-CFTR, a double-addition HTS assay format was developed. This HTS assay utilizes fluorescent voltage sensing dyes to measure changes in membrane potential on the FLIPR III as a measurement for increase in gating (conductance) of ΔF508 CFTR in temperature-corrected ΔF508 CFTR NIH 3T3 cells. The driving force for the response is a Cl^− ion gradient in conjunction with channel activation with forskolin in a single liquid addition step using a fluorescent plate reader such as FLIPR III after the cells have previously been treated with potentiator compounds (or DMSO vehicle control) and subsequently loaded with a redistribution dye. […]

T1 sequence (P13569 with tags, fused parts or gaps DEL508-508): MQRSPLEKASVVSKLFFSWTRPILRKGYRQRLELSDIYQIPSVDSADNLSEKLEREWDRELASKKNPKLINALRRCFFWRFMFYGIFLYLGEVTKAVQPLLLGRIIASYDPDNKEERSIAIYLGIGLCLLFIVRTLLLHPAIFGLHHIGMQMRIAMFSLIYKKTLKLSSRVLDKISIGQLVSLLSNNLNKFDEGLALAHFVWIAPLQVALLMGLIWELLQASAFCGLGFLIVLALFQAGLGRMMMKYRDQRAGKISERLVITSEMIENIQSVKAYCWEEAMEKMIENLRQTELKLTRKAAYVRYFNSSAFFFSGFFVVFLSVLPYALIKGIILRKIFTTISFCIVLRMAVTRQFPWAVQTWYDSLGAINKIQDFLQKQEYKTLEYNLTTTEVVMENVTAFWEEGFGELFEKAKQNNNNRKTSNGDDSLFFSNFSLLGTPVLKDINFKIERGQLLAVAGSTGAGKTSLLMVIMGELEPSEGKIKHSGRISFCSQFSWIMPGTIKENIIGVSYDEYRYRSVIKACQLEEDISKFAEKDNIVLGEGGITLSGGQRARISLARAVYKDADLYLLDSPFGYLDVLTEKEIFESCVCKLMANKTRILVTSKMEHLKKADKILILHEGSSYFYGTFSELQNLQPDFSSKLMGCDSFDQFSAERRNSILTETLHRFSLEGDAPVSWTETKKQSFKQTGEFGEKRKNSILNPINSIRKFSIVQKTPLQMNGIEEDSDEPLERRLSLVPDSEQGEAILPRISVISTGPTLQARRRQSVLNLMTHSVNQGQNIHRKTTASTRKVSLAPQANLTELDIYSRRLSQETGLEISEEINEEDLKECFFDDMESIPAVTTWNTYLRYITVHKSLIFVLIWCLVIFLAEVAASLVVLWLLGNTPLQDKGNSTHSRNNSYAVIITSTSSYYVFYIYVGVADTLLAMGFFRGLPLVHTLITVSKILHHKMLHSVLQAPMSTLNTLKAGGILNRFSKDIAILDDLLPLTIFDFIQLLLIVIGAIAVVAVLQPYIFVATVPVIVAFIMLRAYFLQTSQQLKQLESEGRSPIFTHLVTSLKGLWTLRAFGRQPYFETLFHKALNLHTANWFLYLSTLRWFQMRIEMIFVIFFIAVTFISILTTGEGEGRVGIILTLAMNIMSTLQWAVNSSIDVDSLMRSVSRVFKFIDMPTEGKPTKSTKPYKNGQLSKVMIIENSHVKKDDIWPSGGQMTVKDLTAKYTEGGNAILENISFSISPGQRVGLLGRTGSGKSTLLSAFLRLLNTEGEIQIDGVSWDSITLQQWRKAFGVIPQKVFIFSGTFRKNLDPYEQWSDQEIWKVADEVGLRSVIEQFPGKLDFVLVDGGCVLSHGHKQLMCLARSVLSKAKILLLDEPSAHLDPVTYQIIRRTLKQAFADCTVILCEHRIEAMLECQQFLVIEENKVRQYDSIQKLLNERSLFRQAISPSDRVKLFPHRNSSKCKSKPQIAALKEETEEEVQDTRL

Structure (SMILES): O=C(Nc1ccc(N2C3CCC2CC3)cc1C(F)(F)F)c1c[nH]c2cccc(C(F)(F)F)c2c1=O [Compound I, Form A, N-(4-(7-azabicyclo[2.2.1]heptan-7-yl)-2-(trifluoromethyl)phenyl)-4-oxo-5-(trifluoromethyl)-1,4-dihydroquinoline-3-carboxamide]
- EC50: < 2000 nM
